Experimental data reported in paper doi:10.1101/2022.11.11.516135v3 (biorxiv, 2024).

These compounds were tested against G3BP1-NTF2 (residues 1-139); NTF2-like domain of G3BP1 (Homo sapiens, UniProt Q13283) (assay: biochemical).
Type: binding

G3BP1-NTF2 (residues 1-139); NTF2-like domain of G3BP1, sequence (Q13283 1-139): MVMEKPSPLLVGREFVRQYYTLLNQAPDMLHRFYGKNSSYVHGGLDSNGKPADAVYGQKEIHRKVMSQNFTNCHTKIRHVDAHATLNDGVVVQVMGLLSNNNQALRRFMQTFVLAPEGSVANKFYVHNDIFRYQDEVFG

Point of comparison: `CN1C[C@H](C(=O)N[C@]2(C)O[C@@]3(O)[C@@H]4CCCN4C(=O)[C@H](Cc4ccccc4)N3C2=O)C[C@@H]2c3cccc4[nH]cc(c34)C[C@H]21` [DHD, Dihydroergotamine], Kd 54 µM. Against it:
- O=C1NCN(c2ccccc2)C12CCN(CCCC(c1ccc(F)cc1)c1ccc(F)cc1)CC2 [FLU, Fluspiriline] — within 1.5-fold, 71.4 µM
- CNC(=O)c1c(F)cccc1Nc1nc(Nc2cc3c(cc2OC)CCN3C(=O)CN(C)C)nc2[nH]ccc12 [GSK, GSK1838705A] — 1.8-fold higher, 98 µM
- COc1ccc(Br)cc1S(=O)(=O)NC(=O)/C=C/c1ccccc1Cc1ccc2ccccc2c1 [L-7, L-798106] — 2.9-fold lower, 18.7 µM
- CC[C@H](NC(=O)c1c(C)c(-c2ccccc2)nc2ccccc12)c1ccccc1 [SB2, SB_222200] — within 1.5-fold, 66 µM
